Paper PMC6359144 (International Journal of Molecular Sciences, 2019)
Read-outs that look alike come from different tables or passages of the source.

How the values were obtained:
518A2 melanoma cells [1] = assay: MTT assay, 518A2 melanoma cells; type: cell-based, human; details: for IC50: Homo sapiens, MTT, mean ± SD of four experiments; for IC50 after 72 h compared with IC50 after 24 h: 518A2 melanoma cells, fold lower; for effect on viability of 518A2 melanoma cells: concentrations as high as 50 µM
Description: (§1) HT-29 (ACC-299), HCT-116 (ACC-581) and DLD-1 (ACC-278) colon carcinoma, MCF-7 (ACC-115) breast carcinoma, KB-V1 (ACC-149), 518A2 (Department of Radiotherapy and Radiobiology, University Hospital Vienna) melanoma and Ea.Hy926 (ATCC no. CRL-2922) HUVEC derived endothelial hybrid cells line were grown in Dulbecco’s Modified Eagle Medium (DMEM; Biochrom), high glucose supplemented with 10% (v/v) fetal bovine serum (FBS; Biochrom.) and 1% (v/v) Antibiotic-Antimycotic solution (anti-anti; Thermo Scientific). HDFa human dermal fibroblasts (ATCC: PCS-201-012™) were grown in DMEM supplemented with 10% FBS, 1% anti-anti and 2 mM glutamine. The cells were incubated at 37 °C, 5% CO2, 95% humidified atmosphere. By repeated addition of topotecan or vinblastine at the maximum tolerated dose to the cell medium of MCF-7 and KB-V1 cells, the cells were rendered multidrug-resistant, indicated as MCF-7^Topo and KB-V1^Vbl, respectively. They were serially passaged following trypsinization by using 0.05% trypsin/0.02% EDTA (Biochrom). Mycoplasma contamination was routinely monitored, and only mycoplasma–free cultures were used.
(§2) MTT [3-(4,5-dimethylthiazol-2-yl)-2,5-diphenyltetrazolium bromide] (ABCR) was used to determine the cytotoxicity of test compounds as previously described. Briefly, HDFa human dermal fibroblasts and Ea.Hy926 endothelial hybrid cells (both 1 × 10^5 cells/mL, 100 µL/well), 518A2 melanoma, KB-V1^Vbl cervix carcinoma, MCF-7^Topo breast carcinoma, HT-29, DLD-1 and HCT-116 colon carcinoma (all 5 × 10^4 cells/mL, 100 µL/well) were grown in 96-well culture plates for 24 h. Then, various concentrations of the test compounds were added and the cells were incubated for 24-72 h at 37 °C. After adding 12.5 µL of a 0.5% MTT solution in PBS (final concentration 0.05%) to cell medium, microplates were incubated for 2 h and subsequently swiftly turned to discard the medium. The precipitate of formazan crystals was then dissolved in a 10% solution of SDS in DMSO containing 0.6% acetic acid. To ensure complete dissolution of formazan, microplates were incubated for at least 4 h at 37 °C. Finally, the absorbance at λ = 570 nm (formazan) and 630 nm (background) was measured using a microplate reader (Tecan F200). All experiments were carried out in quadruplicate and the percentage of viable cells was calculated as the mean ± SD with controls set to 100%. Selected graphs of MTT assays can be found in the Supporting Information (Figure S8).

[2] = tested on: HT-29 colon carcinoma cells; assay: MTT assay, HT-29 colon carcinoma cells; type: cell-based, human; details: for IC50: Homo sapiens, MTT; for effect on viability of HT-29 colon carcinoma cells: concentrations as high as 50 µM
Description: as §1, §2

[3] = tested on: DLD-1 colon carcinoma cells; assay: MTT assay, DLD-1 colon carcinoma cells; type: cell-based; details: Homo sapiens, DLD-1, read-out: IC50 DLD-1 (72 h)
Description: as §1, §2

[4] = tested on: HCT-116 colon carcinoma cells; assay: MTT assay, HCT-116 colon carcinoma cells; type: cell-based; details: Homo sapiens, HCT-116, read-out: IC50 HCT-116 (72 h)
Description: as §1, §2

[5] = tested on: KB-V1^Vbl cervix carcinoma cells; assay: MTT assay, KB-V1^Vbl cervix carcinoma cells; type: cell-based; details: Homo sapiens, read-out: IC50 KB-V1^Vbl (72 h)
Description: as §1, §2

[6] = tested on: MCF-7^Topo breast adenocarcinoma cells; assay: MTT assay, MCF-7^Topo breast carcinoma cells; type: cell-based; details: Homo sapiens, MCF7/Topo, read-out: IC50 MCF-7^Topo (72 h)
Description: as §1, §2

[7] = tested on: Ea.Hy926 endothelial hybrid cells; assay: MTT assay, Ea.Hy926 endothelial hybrid cells; type: cell-based; details: Homo sapiens, EA.hy 926, read-out: IC50 Ea.Hy926 (72 h)
Description: as §1, §2

[8] = target: T1, purified pig brain tubulin (Sus scrofa, UniProt P02550+P02554); assay: Turbidimetric cell-free tubulin polymerization assay; type: biochemical; details: 10 µM, 340 nm
T1 construct: using purified pig brain tubulin; from tissue; host or cells: pig brain
Description: An amount of 50 µL of Brinkley’s buffer 80 (BRB80) supplemented with 20% glycerol and 3 mM GTP was given in a black 96-well half-area plate with clear bottom. Then, test compounds 4d–f (final concentration: 5 µM, or 10 µM) or vehicle (DMSO) were added. After adding 50 µL tubulin in BRB80 (10 mg/mL) was pipetted in the wells and immediately placed in a pre-heated microplate reader (Tecan). The polymerization was determined turbidimetrically at 37 °C by measuring the absorption at 340 nm for 120 min in intervals of 5 min. Values were normally distributed for each group (Shapiro–Wilk test, p > 0.05) and there was homogeneity of variance (Levene’s test, p > 0.05).

518A2 melanoma cells [9] = tested on: 518A2 melanoma cells; design: method as in earlier work; details: read-out: IC50 518A2 (72 h), MTT, and 34; cited from earlier work
[10] = tested on: HT-29 colon carcinoma cells; design: method as in earlier work; details: read-out: IC50 HT-29 (72 h), MTT, and 34; cited from earlier work
[11] = tested on: HCT-116 colon carcinoma cells; design: method as in earlier work; details: read-out: IC50 HCT-116 (72 h), MTT, and 34; cited from earlier work
[12] = tested on: MCF-7^Topo breast adenocarcinoma cells; design: method as in earlier work; details: read-out: IC50 MCF-7^Topo (72 h), MTT, and 34; cited from earlier work
[13] = tested on: Ea.Hy926 endothelial hybrid cells; design: method as in earlier work; details: read-out: IC50 Ea.Hy926 (72 h), MTT, and 34; cited from earlier work
[14] = 518A2, read-out: IC50 518A2 (72 h), 72 h
[15] = 518A2, 24 h, read-out: IC50 518A2 (24 h)
[16] = HT-29, read-out: IC50 HT-29 (72 h), 72 h
[17] = HT-29, 24 h, read-out: IC50 HT-29 (24 h)

T1 sequence (P02554 whole entry): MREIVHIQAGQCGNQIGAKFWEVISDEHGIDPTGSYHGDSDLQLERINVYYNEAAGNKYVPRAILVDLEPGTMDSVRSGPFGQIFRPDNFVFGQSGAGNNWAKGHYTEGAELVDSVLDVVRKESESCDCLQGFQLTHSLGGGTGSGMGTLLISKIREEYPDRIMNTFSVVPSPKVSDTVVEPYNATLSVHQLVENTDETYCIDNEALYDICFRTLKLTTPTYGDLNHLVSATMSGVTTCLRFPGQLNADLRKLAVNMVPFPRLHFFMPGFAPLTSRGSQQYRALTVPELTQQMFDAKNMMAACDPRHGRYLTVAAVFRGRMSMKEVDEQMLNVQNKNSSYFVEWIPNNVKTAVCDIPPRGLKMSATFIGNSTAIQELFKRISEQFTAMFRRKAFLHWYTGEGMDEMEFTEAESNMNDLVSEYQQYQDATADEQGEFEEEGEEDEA
T1 sequence (P02550 whole entry): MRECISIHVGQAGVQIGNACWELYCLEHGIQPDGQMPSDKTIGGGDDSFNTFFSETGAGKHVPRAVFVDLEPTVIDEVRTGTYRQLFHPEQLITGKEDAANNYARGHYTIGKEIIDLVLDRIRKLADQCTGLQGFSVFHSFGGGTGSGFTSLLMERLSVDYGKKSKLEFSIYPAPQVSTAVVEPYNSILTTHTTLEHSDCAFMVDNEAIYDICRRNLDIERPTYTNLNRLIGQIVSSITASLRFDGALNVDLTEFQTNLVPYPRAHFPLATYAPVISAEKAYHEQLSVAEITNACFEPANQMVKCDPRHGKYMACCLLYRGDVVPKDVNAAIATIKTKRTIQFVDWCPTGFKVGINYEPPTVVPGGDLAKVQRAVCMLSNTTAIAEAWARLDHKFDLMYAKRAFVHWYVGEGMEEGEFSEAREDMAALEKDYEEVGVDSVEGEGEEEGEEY

Row | Compound | IC50 (518A2 melanoma cells [1]; [14]) | IC50 (518A2 melanoma cells [1]; [15]) | IC50 [2, 16] | IC50 [2, 17] | IC50 [3] | IC50 [4] | IC50 [5] | IC50 [6] | melting point | IC50 after 72 h compared with IC50 after 24 h (518A2 melanoma cells [1]) | IC50 [7] | effect on viability of 518A2 melanoma cells (518A2 melanoma cells [1]) | effect on viability of HT-29 colon carcinoma cells [2] | inhibition of tubulin polymerization [8] | IC50 (518A2 melanoma cells [9]) | IC50 [10] | IC50 [11] | IC50 [12] | IC50 [13]
1 | COc1ccc(-c2ocnc2-c2cc(OC)c(OC)c(OC)c2)cc1OCCCCCC(=O)NO [4i, N-Hydroxy-6-[1-methoxy-4-(4’-(3’’,4’’,5’’-trimethoxyphenyl)oxazol-5’-yl)-2-phenoxy]hexanamide] | 3.3 ± 0.3 µM | 6.9 ± 2.5 µM | 1.7 ± 0.1 µM | 47.6 ± 10.6 µM | 1.3 ± 0.1 µM | 0.61 ± 0.07 µM | 9 ± 0.3 µM | 15.8 ± 1.4 µM | – | – | 1.7 ± 0.1 µM | – | – | – | – | – | – | – | –
2 | COc1ccc(-c2ocnc2-c2cc(OC)c(OC)c(OC)c2)cc1OCCCCC(=O)NO [4h, N-Hydroxy-5-[1-methoxy-4-(4’-(3’’,4’’,5’’-trimethoxyphenyl)oxazol-5’-yl)-2-phenoxy]pentanamide] | 5.6 ± 0.6 µM | 21.6 ± 3.9 µM | 6.6 ± 0.6 µM | 53.9 ± 12 µM | 5.8 ± 0.4 µM | 3.4 ± 0.4 µM | 11.1 ± 1.6 µM | 39.6 ± 5.9 µM | 118 to 120 °C | – | 3.4 ± 0.2 µM | – | – | – | – | – | – | – | –
3 | CCOC(=O)CCCOc1cc(-c2ocnc2-c2cc(OC)c(OC)c(OC)c2)ccc1OC [3g, Ethyl 4-[1-methoxy-4-(4’-(3’’,4’’,5’’-trimethoxyphenyl)oxazol-5’-yl)-2-phenoxy]butyrate] | > 50 µM | > 100 µM | > 50 µM | > 100 µM | – | – | – | – | – | – | – | did not affect the viability | did not affect the viability | – | – | – | – | – | –
4 | COc1ccc(/C=C\c2cc(OC)c(OC)c(OC)c2)cc1O [CA-4, Combretastatin A-4] | – | – | – | – | – | – | – | – | – | – | – | – | – | significant inhibition of tubulin polymerization | 0.018 ± 0.007 µM | 3.6 ± 0.1 µM | 0.0026 ± 0.0002 µM | 0.5 ± 0.2 µM | 0.011 ± 0.002 µM
5 | COc1ccc(-c2ocnc2-c2cc(OC)c(OC)c(OC)c2)cc1OCCCC(=O)O [4j, 4-[1-Methoxy-4-(4’-(3’’,4’’,5’’-trimethoxyphenyl)oxazol-5’-yl)-2-phenoxy]butyric acid] | > 50 µM | > 100 µM | > 100 µM | > 100 µM | – | – | – | – | – | – | – | did not affect the viability | did not affect the viability | – | – | – | – | – | –

Further lines, with some results ahead:

Row | IC50 (518A2 melanoma cells [1]; [14]) | IC50 (518A2 melanoma cells [1]; [15]) | IC50 [2, 16] | IC50 [2, 17] | IC50 [3] | IC50 [4] | IC50 [5] | IC50 [6] | melting point | IC50 after 72 h compared with IC50 after 24 h (518A2 melanoma cells [1]) | Compound | IC50 [7] | effect on viability of 518A2 melanoma cells (518A2 melanoma cells [1]) | effect on viability of HT-29 colon carcinoma cells [2] | inhibition of tubulin polymerization [8] | IC50 (518A2 melanoma cells [9]) | IC50 [10] | IC50 [11] | IC50 [12] | IC50 [13]
6 | 1 ± 0.1 µM | 10.4 ± 5.1 µM | 3.6 ± 0.1 µM | 4.2 ± 0.2 µM | 3.2 ± 0.1 µM | 2.4 ± 0.1 µM | 4 ± 0.2 µM | 2.9 ± 0.8 µM | 202 °C | – | COc1ccc(-c2ocnc2-c2cc(Cl)c(OC)c(OC)c2)cc1OCCCCC(=O)NO [4b, N-Hydroxy-5-[1-methoxy-4-(4’-(3’’-chloro-4’’,5’’-dimethoxyphenyl)oxazol-5’-yl)-2-phenoxy]pentanamide] | 0.57 ± 0.07 µM | – | – | – | – | – | – | – | –
7 | 0.64 ± 0.07 µM | 4.4 ± 0.1 µM | 2.8 ± 0.2 µM | 5 ± 0.2 µM | 0.92 ± 0.04 µM | 0.92 ± 0.12 µM | 2.7 ± 0.2 µM | 9.3 ± 0.8 µM | – | about eight-fold | COc1ccc(-c2ocnc2-c2cc(OC)c(OC)c(OC)c2)cc1OCCCC(=O)NO [4g, N-Hydroxy-4-[1-methoxy-4-(4’-(3’’,4’’,5’’-trimethoxyphenyl)oxazol-5’-yl)-2-phenoxy]butanamide] | 0.41 ± 0.04 µM | – | – | – | – | – | – | – | –
8 | 0.11 ± 0.01 µM | 1.3 ± 0.4 µM | 2.9 ± 0.3 µM | 2.5 ± 0.4 µM | 0.34 ± 0.01 µM | 0.21 ± 0.01 µM | 0.15 ± 0.02 µM | 0.66 ± 0.14 µM | 171 to 172 °C | about eight-fold | COc1ccc(-c2ocnc2-c2cc(Cl)c(OC)c(OC)c2)cc1OCCCC(=O)NO [4a, N-Hydroxy-4-[1-methoxy-4-(4’-(3’’-chloro-4’’,5’’-dimethoxyphenyl)oxazol-5’-yl)-2-phenoxy]butanamide] | 0.0012 ± 0.0006 µM | – | – | – | – | – | – | – | –
9 | 2.2 ± 0.3 µM | 9.4 ± 1.4 µM | 4.9 ± 0.3 µM | 4.6 ± 0.3 µM | 3.3 ± 0.5 µM | 6.5 ± 0.3 µM | 18.4 ± 3.4 µM | 6.1 ± 0.7 µM | 189 °C | – | COc1ccc(-c2ocnc2-c2cc(Cl)c(OC)c(OC)c2)cc1OCCCCCC(=O)NO [4c, N-Hydroxy-6-[1-methoxy-4-(4’-(3’’-chloro-4’’,5’’-dimethoxyphenyl)oxazol-5’-yl)-2-phenoxy]hexanamide] | 7.5 ± 0.5 µM | – | – | – | – | – | – | – | –
